15 compounds from ChEMBL document CHEMBL1158461, “The role of amphiphilicity and negative charge in glycoprotein 41 interactions in the hydrophobic pocket” (J Med Chem, 2009) can be followed below.

As a reminder, the Ki is a dissociation constant, usually derived from enzyme kinetics or from competition with a known ligand. Low values mean higher affinity, high ones lower affinity.

One series in a line: Critical micellar concentration of the compound.
In turn, `CCCCCCCCCCS(=O)(=O)[O-].[Na+]` had a CMC of 25000 µM.

For `CCCCCCCCS(=O)(=O)[O-].[Na+]`, the CMC is over 250000 µM.

As to `CCCCCCCCCCCCCCCCS(=O)(=O)[O-].[Na+]`, the CMC result is “<= 100 uM”.

On to `CCCCCCCCCCCCCCS(=O)(=O)[O-].[Na+]`, for which the CMC amounted to 600 µM.

The compound `CCCCCCCCCCCCS(=O)(=O)[O-].[Na+]` had a CMC of 5000 µM.

`CCCCCCCC(=O)[O-].[Na+]` [SODIUM CAPRYLATE] registered a CMC of 200000 µM.

The compound `CCCCCCCCCCOS(=O)(=O)[O-].[Na+]` [SODIUM DECYL SULFATE] registered a CMC of 15000 µM.

Take `CCCCCCCCCCCC(=O)[O-].[Na+]` [SODIUM DODECANOATE]: the CMC was 2500 µM.

Turning to `CCCCCCCCCCCCOS(=O)(=O)[O-].[Na+]` [SODIUM LAURYL SULFATE], the CMC came out at 2000 µM.

As for `CCCCCCCCCCCCCCCCCCOS(=O)(=O)[O-].[Na+]` [SODIUM OCTADECYL SULFATE], the CMC is under 100 µM.

Turning to `CCCCCCCCOS(=O)(=O)[O-].[Na+]` [SODIUM OCTYL SULFATE], the CMC stood at 30000 µM.

For `CCCCC(CC)CCC(CC(C)C)OS(=O)(=O)[O-].[Na+]` (stereo not given) [SODIUM TETRADECYL SULFATE], the CMC turned out to be 150 µM.

In turn, `CCCCCCCCCCCCCOS(=O)(=O)[O-].[Na+]` [SODIUM TRIDECYL SULFATE] yielded a CMC of 600 µM.

A further series is described as follows: Displacement of C32-Aib-fluorescein from HIV1 envelope glycoprotein gp41 Fe(env5.0)3 receptor by fluorescence assay. Details: species or system Human immunodeficiency virus 1.
`CC[C@H](C)[C@H](NC(=O)[C@H](C)NC(=O)[C@H](CCCNC(=N)N)NC(=O)[C@H](CC(=O)O)NC(=O)[C@H](Cc1c[nH]c2ccccc12)NC(=O)[C@H](C)NC(=O)[C@H](CCC(=O)O)NC(=O)[C@H](Cc1c[nH]c2ccccc12)NC(=O)[C@@H](NC(=O)[C@@H](NC(C)=O)[C@H](C)O)[C@H](C)O)C(=O)N[C@@H](C)C(=O)N[C@@H](CCC(=O)O)C(=O)N[C@@H](Cc1ccc(O)cc1)C(=O)N[C@@H](C)C(=O)N[C@@H](C)C(=O)N[C@@H](CCCNC(=N)N)C(=O)N[C@H](C(=O)N[C@@H](CCC(=O)O)C(=O)N[C@@H](C)C(=O)N[C@@H](CC(C)C)C(=O)N[C@H](C(=O)N[C@@H](CCCNC(=N)N)C(=O)N[C@@H](C)C(=O)N[C@@H](C)C(=O)N[C@@H](CCC(N)=O)C(=O)N[C@@H](CCC(=O)O)C(=O)N[C@@H](CCC(N)=O)C(=O)N[C@@H](CCC(N)=O)C(=O)N[C@@H](CCC(=O)O)C(=O)N[C@@H](CCCCN)C(=O)N[C@@H](CC(N)=O)C(=O)N[C@@H](CS)C(N)=O)[C@@H](C)CC)[C@@H](C)CC` showed a Ki of 7 nM.

A short description of another series: Displacement of C27-Aib-lucifer yellow from HIV1 envelope glycoprotein gp41 Fe(env3.0)3 receptor by fluorescence assay. Details: species or system Human immunodeficiency virus 1.
`CC[C@@H](C)[C@H](NC(=O)[C@H](CCC(=O)O)NC(=O)[C@H](CCCNC(=N)N)NC(=O)[C@H](CC(=O)O)NC(=O)[C@H](Cc1c[nH]c2ccccc12)NC(=O)[C@H](CCC(=O)O)NC(=O)C(C)(C)NC(=O)[C@H](Cc1c[nH]c2ccccc12)NC(=O)[C@@H](NC(=O)[C@@H](NC(=O)[C@H](Cc1cnc[nH]1)NC(=O)[C@H](CC(N)=O)NC(=O)[C@H](Cc1c[nH]c2ccccc12)NC(=O)C(C)(C)NC(=O)[C@H](CCC(N)=O)NC(=O)[C@H](CCC(=O)O)NC(=O)[C@H](CC(C)C)NC(=O)[C@H](CO)NC(=O)[C@H](CCCCN)NC(C)=O)[C@@H](C)O)[C@@H](C)O)C(=O)NC(C)(C)C(=O)N[C@@H](CC(N)=O)C(=O)N[C@@H](Cc1ccc(O)cc1)C(=O)N[C@H](C(=O)N[C@@H](CO)C(=O)N[C@@H](CC(C)C)C(=O)N[C@H](C(=O)N[C@@H](CS)C(N)=O)[C@@H](C)CC)[C@@H](C)O`: the affinity corresponds to a Ki of 1200 nM.
